Consider two compounds from US10363252B2, “Treatment of prostate cancer using hedgehog pathway inhibitors” (HEDGEPATH PHARMACEUTICALS, INC., priority 2013, dated 2019).

In one series the test system is HhP. The conditions noted are these: major metabolite of itraconazole; cited from earlier work.
The nature of series [1]: plasma trough level of itraconazole required for clinical benefit in humans with cancer. Type of series: in vivo, human. The method, then: In particular, the minimum plasma trough level after 4 weeks of therapy required to have a clinically significant effect was at least 1000 ng/ml. Achieving these levels of itraconazole is enhanced by the use of formulations with greater bioavailability such as SUBA-CAP™ formulation. […] These side effects associated with these high doses of itraconazole can be effectively managed by giving a selective mineralocorticoid antagonist, such as eplerenone. Accordingly, in some embodiments, the method further comprises administering eplerenone or other mineralocorticoid inhibitor.

Some results are limits rather than exact numbers.

As to hydroxy-itraconazole, the “potency as a HhP inhibitor relative to itraconazole” value with HhP is on record as “not equipotent”.

With `CCC(C)n1ncn(-c2ccc(N3CCN(c4ccc(OCC5COC(Cn6cncn6)(c6ccc(Cl)cc6Cl)O5)cc4)CC3)cc2)c1=O` (stereo not drawn) [itraconazole], the “side-effects peculiar to high doses” value in series [1] (high doses of itraconazole) is “hypertension, peripheral edema, and hypokalemia”. In addition, the concentration at 4 weeks in series [1] (human, plasma, after 4 weeks of therapy, humans with cancer, read-out: minimum plasma trough level required to have a clinically significant effect) was at least 1 µg/mL.
